Biological target: T1, LXRβ (Homo sapiens, UniProt P55055)
T1 construct: Co-transfection expression plasmids, comprising full-length LXRα (pCMX-h LXRα[…] or LXRβ (pCMX-hLXRβ)); expressed in transfected cells; host or cells: CV-1 African Green Monkey Kidney Cells
T1 sequence (P55055 1-460): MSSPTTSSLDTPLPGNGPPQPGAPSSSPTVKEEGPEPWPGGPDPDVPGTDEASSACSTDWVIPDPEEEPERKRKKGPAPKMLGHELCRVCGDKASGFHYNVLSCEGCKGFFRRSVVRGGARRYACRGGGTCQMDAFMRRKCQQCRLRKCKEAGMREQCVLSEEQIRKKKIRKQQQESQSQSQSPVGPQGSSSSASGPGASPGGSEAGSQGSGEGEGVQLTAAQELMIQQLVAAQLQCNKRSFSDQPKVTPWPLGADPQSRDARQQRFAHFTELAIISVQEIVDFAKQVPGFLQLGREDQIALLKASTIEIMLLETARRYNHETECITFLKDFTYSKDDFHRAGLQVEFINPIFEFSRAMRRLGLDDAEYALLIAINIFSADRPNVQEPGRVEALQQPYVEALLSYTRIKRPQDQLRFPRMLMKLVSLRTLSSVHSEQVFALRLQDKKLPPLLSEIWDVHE
T1 sequence (P19793 1-462 partner): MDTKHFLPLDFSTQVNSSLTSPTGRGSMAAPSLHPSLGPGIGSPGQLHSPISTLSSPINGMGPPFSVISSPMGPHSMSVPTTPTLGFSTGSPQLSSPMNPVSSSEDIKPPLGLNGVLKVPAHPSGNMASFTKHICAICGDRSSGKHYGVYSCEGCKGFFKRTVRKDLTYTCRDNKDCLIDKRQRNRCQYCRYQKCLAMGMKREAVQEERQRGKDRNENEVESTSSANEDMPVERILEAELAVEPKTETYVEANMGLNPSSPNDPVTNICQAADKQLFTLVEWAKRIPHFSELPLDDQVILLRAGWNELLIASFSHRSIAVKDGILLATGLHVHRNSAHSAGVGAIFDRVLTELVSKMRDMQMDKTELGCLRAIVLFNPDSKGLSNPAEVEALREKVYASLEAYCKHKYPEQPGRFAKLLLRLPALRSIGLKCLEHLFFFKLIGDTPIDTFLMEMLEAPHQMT
Assay: Co-transfection assay (LXRE luciferase reporter), LXRβ
Assay type: cell-based
Conditions: for EC50: CV-1 cells transfected with pCMX-hLXRβ and LXREx1-Tk-Luciferase, 20 hours incubation; for Emax: LXRβ co-transfection, relative to high control 1-(2,4-difluorobenzyl)-2-oxo-6-(4-phenoxyphenyl)-4-(trifluoromethyl)-1,2-dihydropyridine-3-carbonitrile, read-out: % Efficacy
How it was run: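 Luciferase signal from an LXREx1-Tk reporter was measured after transfected CV-1 cells (full-length hLXRβ, endogenous RXR) were treated with compounds for 20 h at 37 °C, ≤0.5% DMSO. EC50 came from four-parameter fits of 11-point ½-log curves; % efficacy versus a reference agonist maximum.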

EC50 [nM] | Emax [%] | SMILES
94 | 89 | CNS(=O)(=O)c1cccc(-c2ccc(-n3cc(C(F)(F)F)nc3C)c(-n3nncc3-c3ccc(OC(F)(F)F)cc3)c2)c1 [Example 213, N-methyl-4′-(2-methyl-4-(trifluoromethyl)-1H-imidazol-1-yl)-3′-(5-(4-(trifluoromethoxy)phenyl)-1H-1,2,3-triazol-1-yl)-[1,1′-biphenyl]-3-sulfonamide]
103 | 30 | Cc1nc(-c2ccccc2C(F)(F)F)c(-c2cc(-c3cc(F)c(CO)c(S(C)(=O)=O)c3)ccc2-n2cc(C(F)(F)F)nc2C)o1 [Example 630, (3-fluoro-3′-(2-methyl-4-(2-(trifluoromethyl)phenyl)oxazol-5-yl)-4′-(2-methyl-4-(triftuoromethyl)-1H-imidazol-1-yl)-5-(methylsulfonyl)-[1,1′-biphenyl]-4-yl)methanol]
1680 | 37 | Cc1nc(C(F)F)c(C)n1-c1ccc(-c2cc(F)c(CO)c(S(C)(=O)=O)c2)cc1-n1nncc1-c1ccc(Cl)cc1 [Example 231, (3′-(5-(4-chlorophenyl)-1H-1,2,3-triazol-1-yl)-4′-(4-(difluoromethyl)-2,5-dimethyl-1H-imidazol-1-yl)-3-fluoro-5-(methylsulfonyl)-[1,1′-biphenyl]-4-yl)methanol]
398 | 62 | Cc1nc(-c2cc(-c3cccc(S(C)(=O)=O)c3)ccc2-n2cc(C(F)(F)F)nc2C)c(-c2ccc(Cl)c(OC(F)F)c2)o1 [Example 458, 5-(4-chloro-3-(difluoromethoxy)phenyl)-2-methyl-4-(4-(2-methyl-4-(trifluoromethyl)-1H-imidazol-1-yl)-3′-(methylsulfonyl)biphenyl-3-yl)oxazole]
1480 | 74 | CCC(F)(F)c1cn(-c2ccc(-c3cccc(S(N)(=O)=O)c3)cc2-n2nncc2-c2ccc(OC(F)(F)F)cc2)c(C)n1 [Example 183, 4′-[4-(1,1-difluoropropyl)-2-methyl-1H-imidazol-1-yl]-3′-(5-{4-[(trifluoromethyl)oxy]phenyl}-1H-1,2,3-triazol-1-yl)biphenyl-3-sulfonamide]
234 | 75 | Cc1nc(-c2cc(-c3cccc(S(C)(=O)=O)c3)ccc2-n2cc(C(F)(F)F)nc2C)c(-c2ccc3c(c2)OCCO3)o1 [Example 443, 5-(2,3-dihydrobenzo[b][1,4]dioxin-6-yl)-2-methyl-4-(4-(2-methyl-4-(trifluoromethyl)-1H-imidazol-1-yl)-3′-(methylsulfonyl)biphenyl-3-yl)oxazole]
1520 | 44 | Cc1nc(C(F)(F)F)cn1-c1ccc(-c2cccc(S(C)(=O)=O)c2)cc1-n1nncc1Cc1ccccc1Cl [Example 219, 5-(2-chlorobenzyl)-1-(4-(2-methyl-4-(trifluoromethyl)-1H-imidazol-1-yl)-3′-(methylsulfonyl)-[1,1′-biphenyl]-3-yl)-1H-1,2,3-triazole]
127 | 99 | Cc1nc(C(F)(F)F)cn1-c1ccc(-c2cc(F)c(CO)c(S(C)(=O)=O)c2)cc1-n1nncc1-c1ccc(OC(F)(F)F)cc1 [Example 211, (3-fluoro-4′-(2-methyl-4-(trifluoromethyl)-1H-imidazol-1-yl)-5-(methylsulfonyl)-3′-(5-(4-(trifluoromethoxy)phenyl)-1H-1,2,3-triazol-1-yl)-[1,1′-biphenyl]-4-yl)methanol]
91 | 77 | Cc1nc(-c2cc(-c3cccc(S(C)(=O)=O)c3)ccc2-n2cc(C(F)(F)F)nc2C)c(-c2ccc(C)c(F)c2)o1 [Example 504, 5-(3-fluoro-4-methylphenyl)-2-methyl-4-(4-(2-methyl-4-(trifluoromethyl)-1H-imidazol-1-yl)-3′-(methylsulfonyl)biphenyl-3-yl)oxazole]
334 | 86 | CCS(=O)(=O)c1cccc(-c2ccc(-n3cc(C(F)(F)F)nc3C)c(-n3nncc3-c3ccc(OC(F)(F)F)cc3)c2)c1 [Example 215, 1-(3′-(ethylsulfonyl)-4-(2-methyl-4-(trifluoromethyl)-1H-imidazol-1-yl)-[1,1-biphenyl]-3-yl)-5-(4-(trifluoromethoxy)phenyl)-1H-1,2,3-triazole]
205 | 63 | CCS(=O)(=O)c1cccc(-c2ccc(-n3cc(C(F)(F)F)nc3C)c(-n3nncc3C(F)(F)c3ccc(Cl)cc3)c2)c1 [Example 142, 5-[(4-chlorophenyl)(difluoro)methyl]-1-{3′-(ethylsulfonyl)-4-[2-methyl-4-(trifluoromethyl)-1H-imidazol-1-yl]biphenyl-3-yl}-1H-1,2,3-triazole]
2560 | 67 | Cc1nc(C2CC2)cn1-c1ccc(-c2cccc(S(C)(=O)=O)c2)cc1-n1nncc1-c1ccc(Cl)cc1 [Example 228, 5-(4-chlorophenyl)-1-(4-(4-cyclopropyl-2-methyl-1H-imidazol-1-yl)-3′-(methylsulfonyl)-[1,1′-biphenyl]-3-yl)-1H-1,2,3-triazole]
49 | 91 | Cc1cc(-c2cc(-c3cccc(S(C)(=O)=O)c3)ccc2-n2cc(C(F)(F)F)nc2C)n(-c2ccc(OC(F)F)cc2)n1 [Example 301, 1-(4-(difluoromethoxy)phenyl)-3-methyl-5-(4-(2-methyl-4-(trifluoromethyl)-1H-imidazol-1-yl)-3′-(methylsulfonyl)biphenyl-3-yl)-1H-pyrazole]
143 | 63 | Cc1nc(-c2cc(-c3cc(F)c(CO)c(S(C)(=O)=O)c3)ccc2-n2cc(C(F)(F)F)nc2C)c(-c2cccc(Cl)n2)o1 [Example 427, (3′-(5-(6-chloropyridin-2-yl)-2-methyloxazol-4-yl)-3-fluoro-4′-(2-methyl-4-(trifluoromethyl)-1H-imidazol-1-yl)-5-(methylsulfonyl)biphenyl-4-yl)methanol]
110 | 98 | CS(=O)(=O)c1cc(-c2ccc(-n3cc(C(F)(F)F)nc3Cl)c(-n3nncc3-c3ccc(Cl)cc3)c2)cc(F)c1CO [Example 144, {3′-[5-(4-chlorophenyl)-1H-1,2,3-triazol-1-yl]-4′-[2-chloro-4-(trifluoromethyl)-1H-imidazol-1-yl]-3-fluoro-5-(methylsulfonyl)biphenyl-4-yl}methanol]
473 | 80 | Cc1nc(C(F)(F)F)cn1-c1ccc(-c2cccc(S(C)(=O)=O)c2)cc1-n1nncc1-c1ccc(C(C)C)cc1 [Example 72, 5-[4-(1-methylethyl)phenyl]-1-{3′-(methylsulfonyl)-4-[2-methyl-4-(trifluoromethyl)-1H-imidazol-1-yl]biphenyl-3-yl}-1H-1,2,3-triazole]
502 | 65 | Cc1nc(C(F)(F)F)cn1-c1ccc(-c2cc(Cl)c(CO)c(S(C)(=O)=O)c2)cc1-n1nncc1-c1ccc2c(c1)OC(F)(F)O2 [Example 21, {3-chloro-3′-[5-(2,2-difluoro-1,3-benzodioxol-5-yl)-1H-1,2,3-triazol-1-yl]-5-(methylsulfonyl)-4′-[2-methyl-4-(trifluoromethyl)-1H-imidazol-1-yl]biphenyl-4-yl}methanol]
1030 | 91 | Cc1nc(C(F)(F)F)cn1-c1ccc(-c2cccc(S(=O)(=O)C(C)C)c2)cc1-n1nncc1-c1ccc(OC(F)(F)F)cc1 [Example 98, 1-{3′-[(1-methylethyl)sulfonyl]-4-[2-methyl-4-(trifluoromethyl)-1H-imidazol-1-yl]biphenyl-3-yl}-5-{4-[(trifluoromethyl)oxy]phenyl}-1H-1,2,3-triazole]
110 | 97 | Cc1nc(C(F)(F)F)cn1-c1c(F)cc(-c2cccc(S(C)(=O)=O)c2)cc1-n1nncc1-c1ccc(Cl)cc1 [Example 204, 5-(4-chlorophenyl)-1-{5-fluoro-3′-(methylsulfonyl)-4-[2-methyl-4-(trifluoromethyl)-1H-imidazol-1-yl]biphenyl-3-yl}-1H-1,2,3-triazole]
66 | 75 | Cc1ccc(C(C)c2cnnn2-c2cc(-c3cc(F)c(CO)c(S(C)(=O)=O)c3)ccc2-n2cc(C(F)(F)F)nc2C)cc1 (stereo not shown) [Example 9, (3-fluoro-3′-{5-[1-(4-methylphenyl)ethyl]-1H-1,2,3-triazol-1-yl}-5-(methylsulfonyl)-4′-[2-methyl-4-(trifluoromethyl)-1H-imidazol-1-yl]biphenyl-4-yl)methanol]

From US9834542B2, “LXR modulators” (BRISTOL-MYERS SQUIBB COMPANY, priority 2013, dated 2017)
